In ChEMBL document CHEMBL1641539 (Bioorg Med Chem Lett, 2011):

Assays:
[1] = molecular target: Serine/threonine-protein kinase MARK1 (Homo sapiens) (UniProt Q9P0L2); test: Inhibition of human MARK1 at 10 uM after 60 mins by TR-FRET assay; values are per cent of control
[2] = molecular target: Phosphorylase b kinase gamma catalytic chain, liver/testis isoform (Homo sapiens) (UniProt P15735); test: Inhibition of human PhKgamma2 at 10 uM after 60 mins by TR-FRET assay; values are per cent of control
[3] = molecular target: Receptor-type tyrosine-protein kinase FLT3 (Homo sapiens) (UniProt P36888); test: Inhibition of human Flt3 at 10 uM after 60 mins by TR-FRET assay; values are per cent of control
[4] = molecular target: Serine/threonine-protein kinase PAK 2 (Homo sapiens) (UniProt Q13177); test: Inhibition of human PAK2 at 10 uM after 60 mins by TR-FRET assay; values are per cent of control
[5] = molecular target: Cyclin-dependent kinase 7/ cyclin H (Homo sapiens) (UniProt P51946+P50613); test: Inhibition of human CDK7/cyclinH/MAT1 at 10 uM after 60 mins by TR-FRET assay; values are per cent of control
[6] = molecular target: Mitogen-activated protein kinase kinase kinase 5 (Homo sapiens) (UniProt Q99683); test: Inhibition of human ASK1 at 10 uM after 60 mins by TR-FRET assay; values are per cent of control
[7] = molecular target: Cytoplasmic tyrosine-protein kinase BMX (Homo sapiens) (UniProt P51813); test: Inhibition of human Bmx at 10 uM after 60 mins by TR-FRET assay; values are per cent of control
[8] = molecular target: Ribosomal protein S6 kinase alpha-1 (Homo sapiens) (UniProt Q15418); test: Inhibition of human Rsk1 at 10 uM after 60 mins by TR-FRET assay; conditions: values are per cent of control
Chain of Ribosomal protein S6 kinase alpha-1 (Homo sapiens) (Q15418 whole entry): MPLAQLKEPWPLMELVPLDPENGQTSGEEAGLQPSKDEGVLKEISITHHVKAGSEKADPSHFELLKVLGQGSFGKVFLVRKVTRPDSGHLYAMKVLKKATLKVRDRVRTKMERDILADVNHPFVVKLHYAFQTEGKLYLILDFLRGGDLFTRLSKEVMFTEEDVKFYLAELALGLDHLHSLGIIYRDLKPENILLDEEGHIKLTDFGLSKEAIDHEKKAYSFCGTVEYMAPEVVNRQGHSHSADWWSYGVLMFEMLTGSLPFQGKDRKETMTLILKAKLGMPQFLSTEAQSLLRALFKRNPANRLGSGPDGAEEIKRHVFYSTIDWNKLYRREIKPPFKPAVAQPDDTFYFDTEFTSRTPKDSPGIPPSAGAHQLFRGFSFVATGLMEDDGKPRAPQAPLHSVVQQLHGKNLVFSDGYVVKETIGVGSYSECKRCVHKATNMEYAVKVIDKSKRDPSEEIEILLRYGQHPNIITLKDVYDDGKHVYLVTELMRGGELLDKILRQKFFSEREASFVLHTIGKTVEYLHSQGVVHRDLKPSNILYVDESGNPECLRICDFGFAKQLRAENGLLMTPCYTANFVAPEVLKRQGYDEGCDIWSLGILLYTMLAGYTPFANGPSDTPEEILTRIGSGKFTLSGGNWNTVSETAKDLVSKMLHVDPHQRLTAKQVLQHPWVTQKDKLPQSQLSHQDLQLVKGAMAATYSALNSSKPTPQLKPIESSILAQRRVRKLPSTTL

[9] = molecular target: Serine/threonine-protein kinase STK11 (Homo sapiens) (UniProt Q15831); test: Inhibition of human LKB1 at 10 uM after 60 mins by TR-FRET assay; values are per cent of control
[10] = molecular target: Serine/threonine-protein kinase Nek11 (Homo sapiens) (UniProt Q8NG66); test: Inhibition of human NEK11 at 10 uM after 60 mins by TR-FRET assay; values are per cent of control
[11] = molecular target: Serine/threonine-protein kinase 4 (Homo sapiens) (UniProt Q13043); test: Inhibition of human MST1 at 10 uM after 60 mins by TR-FRET assay; conditions: values are per cent of control
Chain of Serine/threonine-protein kinase 4 (Homo sapiens) (Q13043 whole entry): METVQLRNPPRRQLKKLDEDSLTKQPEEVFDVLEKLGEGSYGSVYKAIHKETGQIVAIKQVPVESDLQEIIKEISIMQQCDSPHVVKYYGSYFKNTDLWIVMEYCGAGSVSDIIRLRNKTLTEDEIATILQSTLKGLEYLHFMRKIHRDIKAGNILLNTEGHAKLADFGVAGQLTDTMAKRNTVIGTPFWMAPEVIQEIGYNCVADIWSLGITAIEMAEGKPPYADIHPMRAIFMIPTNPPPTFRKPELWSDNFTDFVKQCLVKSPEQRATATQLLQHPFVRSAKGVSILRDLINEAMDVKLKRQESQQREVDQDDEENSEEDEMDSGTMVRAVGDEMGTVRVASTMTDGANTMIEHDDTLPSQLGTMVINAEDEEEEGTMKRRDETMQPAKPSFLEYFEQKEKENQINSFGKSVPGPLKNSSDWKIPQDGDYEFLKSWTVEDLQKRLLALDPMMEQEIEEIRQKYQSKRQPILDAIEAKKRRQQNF

[12] = molecular target: Vascular endothelial growth factor receptor 3 (Homo sapiens) (UniProt P35916); test: Inhibition of human Flt4 at 10 uM after 60 mins by TR-FRET assay; values are per cent of control
[13] = molecular target: Death-associated protein kinase 3 (Homo sapiens) (UniProt O43293); test: Inhibition of human ZIPK at 10 uM after 60 mins by TR-FRET assay; values are per cent of control
[14] = molecular target: Homeodomain-interacting protein kinase 3 (Homo sapiens) (UniProt Q9H422); test: Inhibition of human HIPK3 at 10 uM after 60 mins by TR-FRET assay; values are per cent of control
Chain of Homeodomain-interacting protein kinase 3 (Homo sapiens) (Q9H422 whole entry, looked up): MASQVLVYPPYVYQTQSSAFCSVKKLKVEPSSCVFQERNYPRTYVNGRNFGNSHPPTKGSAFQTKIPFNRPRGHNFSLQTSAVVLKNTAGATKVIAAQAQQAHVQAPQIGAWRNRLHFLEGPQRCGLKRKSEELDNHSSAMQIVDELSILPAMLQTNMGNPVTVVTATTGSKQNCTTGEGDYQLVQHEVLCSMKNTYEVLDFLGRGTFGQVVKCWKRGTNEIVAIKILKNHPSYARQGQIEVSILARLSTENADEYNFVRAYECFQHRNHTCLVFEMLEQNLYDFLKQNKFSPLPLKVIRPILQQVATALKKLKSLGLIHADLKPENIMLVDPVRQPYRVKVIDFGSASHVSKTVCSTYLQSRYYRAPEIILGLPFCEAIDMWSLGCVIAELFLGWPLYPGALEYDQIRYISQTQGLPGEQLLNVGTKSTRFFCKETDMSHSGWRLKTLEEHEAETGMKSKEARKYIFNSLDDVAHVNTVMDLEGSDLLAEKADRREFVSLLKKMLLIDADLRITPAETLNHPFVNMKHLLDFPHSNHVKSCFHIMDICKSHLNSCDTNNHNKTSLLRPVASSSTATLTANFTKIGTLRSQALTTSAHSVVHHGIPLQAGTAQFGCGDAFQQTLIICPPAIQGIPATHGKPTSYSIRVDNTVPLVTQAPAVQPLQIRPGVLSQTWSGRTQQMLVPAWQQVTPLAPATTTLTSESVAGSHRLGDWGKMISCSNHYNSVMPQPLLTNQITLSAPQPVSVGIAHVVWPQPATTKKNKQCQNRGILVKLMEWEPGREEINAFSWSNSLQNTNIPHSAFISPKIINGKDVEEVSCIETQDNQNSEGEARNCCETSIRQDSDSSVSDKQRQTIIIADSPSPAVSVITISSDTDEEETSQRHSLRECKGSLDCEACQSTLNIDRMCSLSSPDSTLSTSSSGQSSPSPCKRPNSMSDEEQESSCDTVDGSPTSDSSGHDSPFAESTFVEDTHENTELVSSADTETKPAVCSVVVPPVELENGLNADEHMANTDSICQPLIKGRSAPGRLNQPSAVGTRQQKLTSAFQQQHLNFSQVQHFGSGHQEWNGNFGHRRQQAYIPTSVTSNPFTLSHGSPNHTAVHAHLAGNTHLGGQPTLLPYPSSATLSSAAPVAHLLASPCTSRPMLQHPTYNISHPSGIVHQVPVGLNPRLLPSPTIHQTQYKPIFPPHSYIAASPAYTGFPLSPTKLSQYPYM

[15] = molecular target: 3-phosphoinositide-dependent protein kinase 1 (Homo sapiens) (UniProt O15530); test: Inhibition of human PDK1 at 10 uM after 60 mins by TR-FRET assay; values are per cent of control
[16] = molecular target: Serine/threonine-protein kinase BRSK1 (Homo sapiens) (UniProt Q8TDC3); test: Inhibition of human BrSK1 at 10 uM after 60 mins by TR-FRET assay; values are per cent of control
[17] = molecular target: Protein kinase C epsilon type (Homo sapiens) (UniProt Q02156); test: Inhibition of human PKCepsilon at 10 uM after 60 mins by TR-FRET assay; values are per cent of control
Chain of Protein kinase C epsilon type (Homo sapiens) (Q02156 whole entry): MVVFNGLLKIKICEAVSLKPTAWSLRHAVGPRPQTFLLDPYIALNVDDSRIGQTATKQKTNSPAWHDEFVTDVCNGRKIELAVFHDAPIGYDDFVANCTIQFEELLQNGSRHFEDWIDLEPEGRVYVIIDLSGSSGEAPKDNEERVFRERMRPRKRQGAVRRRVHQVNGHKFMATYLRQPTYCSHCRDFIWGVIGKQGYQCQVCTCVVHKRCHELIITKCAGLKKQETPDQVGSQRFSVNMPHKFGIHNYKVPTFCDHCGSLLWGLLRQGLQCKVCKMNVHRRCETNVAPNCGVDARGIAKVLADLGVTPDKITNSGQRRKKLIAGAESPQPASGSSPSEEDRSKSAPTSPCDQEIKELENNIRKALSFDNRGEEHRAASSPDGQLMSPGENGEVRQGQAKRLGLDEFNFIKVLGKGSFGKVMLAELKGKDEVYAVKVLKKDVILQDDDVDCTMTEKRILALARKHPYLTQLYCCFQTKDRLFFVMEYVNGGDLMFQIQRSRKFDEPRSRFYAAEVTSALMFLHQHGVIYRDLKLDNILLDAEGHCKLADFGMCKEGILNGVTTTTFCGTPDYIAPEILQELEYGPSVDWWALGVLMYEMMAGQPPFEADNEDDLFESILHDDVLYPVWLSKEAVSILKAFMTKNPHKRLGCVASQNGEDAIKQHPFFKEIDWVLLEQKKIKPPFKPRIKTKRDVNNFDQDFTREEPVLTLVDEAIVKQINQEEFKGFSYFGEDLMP

[18] = molecular target: Fibroblast growth factor receptor 3 (Homo sapiens) (UniProt P22607); test: Inhibition of human FGFR3 at 10 uM after 60 mins by TR-FRET assay; values are per cent of control
[19] = molecular target: Tyrosine-protein kinase Fer (Homo sapiens) (UniProt P16591); test: Inhibition of human Fer at 10 uM after 60 mins by TR-FRET assay; values are per cent of control
[20] = molecular target: Maternal embryonic leucine zipper kinase (Homo sapiens) (UniProt Q14680); test: Inhibition of human MELK at 10 uM after 60 mins by TR-FRET assay; values are per cent of control
[21] = system: Angiopoietin-1 receptor (Homo sapiens), Q02763 [Y897S]; test: Inhibition of human Tie2 Y897S mutant at 10 uM after 60 mins by TR-FRET assay; values are per cent of control
Chain of Angiopoietin-1 receptor (Homo sapiens), Q02763 [Y897S] (Q02763 whole entry Y897S): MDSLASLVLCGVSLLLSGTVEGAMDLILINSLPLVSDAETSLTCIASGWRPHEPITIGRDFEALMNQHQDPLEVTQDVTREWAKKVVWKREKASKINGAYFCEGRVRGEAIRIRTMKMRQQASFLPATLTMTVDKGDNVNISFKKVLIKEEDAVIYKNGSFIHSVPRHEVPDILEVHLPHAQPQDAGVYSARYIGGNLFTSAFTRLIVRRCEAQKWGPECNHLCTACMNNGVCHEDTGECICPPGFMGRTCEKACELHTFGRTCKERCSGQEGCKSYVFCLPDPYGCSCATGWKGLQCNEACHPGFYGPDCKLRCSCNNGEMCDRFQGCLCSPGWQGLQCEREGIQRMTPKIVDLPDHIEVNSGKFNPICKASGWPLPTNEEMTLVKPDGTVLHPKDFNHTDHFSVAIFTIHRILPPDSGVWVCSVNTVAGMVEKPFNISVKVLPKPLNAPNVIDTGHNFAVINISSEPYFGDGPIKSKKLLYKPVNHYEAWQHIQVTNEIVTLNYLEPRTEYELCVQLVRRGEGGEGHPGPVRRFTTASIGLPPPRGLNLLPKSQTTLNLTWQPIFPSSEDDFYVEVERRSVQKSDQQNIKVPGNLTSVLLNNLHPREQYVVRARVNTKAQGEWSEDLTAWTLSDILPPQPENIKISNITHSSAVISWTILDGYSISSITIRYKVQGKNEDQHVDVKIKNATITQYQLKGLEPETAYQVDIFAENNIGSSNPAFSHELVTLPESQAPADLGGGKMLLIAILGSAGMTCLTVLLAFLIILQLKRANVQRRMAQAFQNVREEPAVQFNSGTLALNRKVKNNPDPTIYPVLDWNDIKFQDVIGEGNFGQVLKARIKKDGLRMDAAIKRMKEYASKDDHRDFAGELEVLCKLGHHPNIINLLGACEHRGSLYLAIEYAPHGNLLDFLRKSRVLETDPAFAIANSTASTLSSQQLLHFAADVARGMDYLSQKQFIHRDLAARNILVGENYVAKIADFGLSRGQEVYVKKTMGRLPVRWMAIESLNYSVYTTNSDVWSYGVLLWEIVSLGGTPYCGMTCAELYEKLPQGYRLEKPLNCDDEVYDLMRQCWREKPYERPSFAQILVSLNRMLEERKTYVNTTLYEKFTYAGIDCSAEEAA

[22] = molecular target: Tyrosine-protein kinase Yes (Homo sapiens) (UniProt P07947); test: Inhibition of human Yes at 10 uM after 60 mins by TR-FRET assay; values are per cent of control
[23] = system: Tyrosine-protein kinase ABL1 (Homo sapiens), P00519 [Q252H]; test: Inhibition of human Abl Q252H mutant at 10 uM after 60 mins by TR-FRET assay; values are per cent of control
[24] = molecular target: Tyrosine-protein kinase Lyn (Homo sapiens) (UniProt P07948); test: Inhibition of human Lyn at 10 uM after 60 mins by TR-FRET assay; conditions: values are per cent of control
[25] = molecular target: Proto-oncogene tyrosine-protein kinase Src (Homo sapiens) (UniProt P12931); test: Inhibition of human c-SRC at 10 uM after 60 mins by TR-FRET assay; values are per cent of control
[26] = system: Mast/stem cell growth factor receptor Kit (Homo sapiens), P10721 [D816V]; test: Inhibition of human c-Kit D816V mutant at 10 uM after 60 mins by TR-FRET assay; values are per cent of control
[27] = system: Platelet-derived growth factor receptor alpha (Homo sapiens), P16234 [D842V]; test: Inhibition of human PDGFRalpha D842V mutant at 10 uM after 60 mins by TR-FRET assay; values are per cent of control

Chain of Serine/threonine-protein kinase MARK1 (Homo sapiens) (Q9P0L2 whole entry, looked up, canonical isoform): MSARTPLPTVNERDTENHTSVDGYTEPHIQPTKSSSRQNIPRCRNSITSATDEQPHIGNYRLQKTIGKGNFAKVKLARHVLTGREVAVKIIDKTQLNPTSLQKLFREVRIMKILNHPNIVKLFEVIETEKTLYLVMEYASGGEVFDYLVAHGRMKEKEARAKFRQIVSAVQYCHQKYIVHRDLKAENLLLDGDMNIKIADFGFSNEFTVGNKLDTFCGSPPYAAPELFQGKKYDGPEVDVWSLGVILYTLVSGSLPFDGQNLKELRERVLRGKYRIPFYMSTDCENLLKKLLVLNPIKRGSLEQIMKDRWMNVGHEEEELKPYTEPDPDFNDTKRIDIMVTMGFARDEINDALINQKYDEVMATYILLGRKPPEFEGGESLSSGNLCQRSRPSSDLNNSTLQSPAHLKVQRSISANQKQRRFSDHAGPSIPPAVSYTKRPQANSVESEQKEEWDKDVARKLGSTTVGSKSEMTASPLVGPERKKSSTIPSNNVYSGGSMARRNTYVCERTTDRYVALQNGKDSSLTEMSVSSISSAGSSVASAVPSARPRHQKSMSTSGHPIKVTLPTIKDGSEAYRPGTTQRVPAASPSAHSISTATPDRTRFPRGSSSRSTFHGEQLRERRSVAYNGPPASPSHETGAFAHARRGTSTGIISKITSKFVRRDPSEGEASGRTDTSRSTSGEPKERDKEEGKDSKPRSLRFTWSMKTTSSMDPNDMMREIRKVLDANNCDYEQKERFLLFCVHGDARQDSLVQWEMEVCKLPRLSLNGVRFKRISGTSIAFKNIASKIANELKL

Question: What does the source list for `S=c1[nH]nc(-c2ccncc2)n1-c1ccc2ccccc2c1`?
Answer: residual activity [1]: 113%; residual activity [2]: 109%; residual activity [3]: 119%; residual activity [4]: 108%; residual activity [5]: 113%; residual activity [6]: 102%; residual activity [7]: 136%; residual activity [8]: 105%; residual activity [9]: 123%; residual activity [10]: 126%; residual activity [11]: 112%; residual activity [12]: 95%; residual activity [13]: 103%; residual activity [14]: 109%; residual activity [15]: 108%; residual activity [16]: 102%; residual activity [17]: 100%; residual activity [18]: 109%; residual activity [19]: 99%; residual activity [20]: 105%; residual activity [21]: 92%; residual activity [22]: 107%; residual activity [23]: 111%; residual activity [24]: 102%; residual activity [25]: 93%; residual activity [26]: 113%; residual activity [27]: 122%
